The source of these data is patent publication US10538555B2, “Macrocyclic inhibitors of the PD-1/PD-L1 and CD80(B7-1)/PD-L1 protein/protein interactions” (BRISTOL-MYERS SQUIBB COMPANY, priority 2014, dated 2020).

Where a SMILES comes first, the peptide text is derived from it. Bridges are numbered along the chain shown (N, C = ends). [ ]: non-standard residue; d: D form. ξ: configuration not given here. Phe(3,4,5-F3) = N[C@@H](Cc1cc(F)c(F)c(F)c1)C(=O)O; NMePhe(4-Me) = CN[C@@H](Cc1ccc(C)cc1)C(=O)O; NMePhe(4-F) = CN[C@@H](Cc1ccc(F)cc1)C(=O)O; Morpholine(3S-CO) = O=C(O)[C@@H]1COCCN1; d(cisHyp) = O=C(O)[C@H]1C[C@@H](O)CN1; Hyp = O=C(O)[C@@H]1C[C@@H](O)CN1; NMeF = CN[C@@H](Cc1ccccc1)C(=O)O; dHyp = O=C(O)[C@H]1C[C@H](O)CN1; NMeNle = CCCC[C@H](NC)C(=O)O; dPip = O=C(O)[C@H]1CCCCN1; hSer = N[C@@H](CCO)C(=O)O; NMeA = CN[C@@H](C)C(=O)O; Orn = NCCC[C@H](N)C(=O)O; Dab = NCC[C@H](N)C(=O)O; Dap = NC[C@H](N)C(=O)O; ξC = NC(CS)C(=O)O; Sar = CNCC(=O)O

One test deals with T1, Human PD-L1/PD-1 (Homo sapiens, UniProt Q9NZQ7).
T1 construct: TVMV protease cleavage site (C); made in house; host or cells: HEK293T cells
T1 sequence (Q9NZQ7 with tags, fused parts or gaps): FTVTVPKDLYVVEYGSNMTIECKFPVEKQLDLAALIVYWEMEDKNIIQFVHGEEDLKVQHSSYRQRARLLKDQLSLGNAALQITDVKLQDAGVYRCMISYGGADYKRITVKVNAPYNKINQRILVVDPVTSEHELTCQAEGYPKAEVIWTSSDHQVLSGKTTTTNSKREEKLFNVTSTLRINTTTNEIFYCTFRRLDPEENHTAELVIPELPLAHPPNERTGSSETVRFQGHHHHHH
As to the kind of experiment: HTRF Human PD-L1/PD-1 binding assay (PD-1-Ig/PD-L1-His). The following applies: PD-L1-His 10 nM, PD-1-Ig 20 nM; class symbol; read-out: HTRF Human PD-L1/PD-1 Binding Assay IC50 Range. An outline of the steps:
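Compound preincubated 15 min with PD-L1-His (10 nM final), then PD-1-Ig (20 nM final) added for 15 min in dPBS with 0.1% BSA and 0.05% Tween-20. Detection by Eu-cryptate anti-Ig (1 nM) and APC anti-His (20 nM) after 30 min; 665/620 nm HTRF ratio. Proteins expressed in HEK293T.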
For orientation: TR-FRET usually uses a lanthanide donor and a delayed reading to cut background.
Consider `CCCC[C@H]1C(=O)N(C)[C@@H](CCCC)C(=O)N[C@@H](CCC(=O)O)C(=O)N[C@H](C(=O)NCC(N)=O)CSCC(=O)N[C@@H](Cc2ccc(O)cc2)C(=O)N2CCOC[C@H]2C(=O)N[C@@H](CC(=O)O)C(=O)N2CCC[C@H]2C(=O)N[C@@H](CN)C(=O)N[C@@H](CCC(=O)O)C(=O)N2C[C@H](O)C[C@H]2C(=O)N[C@@H](Cc2c[nH]c3ccccc23)C(=O)N[C@@H](CO)C(=O)N[C@@H](Cc2c[nH]c3ccccc23)C(=O)N1C` [Example 1520] ({CH2CO}-Y[Morpholine(3S-CO)]DP[Dap]E[Hyp]WSW[NMeNle][NMeNle]ECG-NH2; thioether N-14), for which the IC50 fell in the range of 1 to 9.9 nM.

Regarding `CCCC[C@H]1C(=O)N[C@@H](CC(N)=O)C(=O)N2CCC[C@H]2C(=O)N[C@@H](CO)C(=O)N[C@@H](CCO)C(=O)N2C[C@H](O)C[C@H]2C(=O)N[C@@H](Cc2c[nH]c3ccccc23)C(=O)N[C@@H](CCCN)C(=O)N[C@@H](Cc2c[nH]c3ccccc23)C(=O)N(C)[C@@H](C)C(=O)N(C)[C@@H](C)C(=O)N[C@@H](CCCNC(=N)N)C(=O)NC(C(=O)NCC(N)=O)CSCC(=O)N[C@@H](Cc2ccc(O)cc2)C(=O)N1C` (stereo partly drawn) [Example 10201] ({CH2CO}-Y[NMeNle]NPS[hSer][Hyp]W[Orn]W[NMeA][NMeA]R[ξC]G-NH2; thioether N-14), the IC50 is 1000 to 10000 nM.

Regarding `CCCC[C@H]1C(=O)N(C)[C@@H](CCCC)C(=O)N[C@@H](C)C(=O)N[C@H](C(=O)NCC(N)=O)CSCC(=O)N[C@@H](Cc2ccc(O)cc2)C(=O)N2CCNC[C@H]2C(=O)N[C@@H](CC(N)=O)C(=O)N2CCC[C@H]2C(=O)N[C@@H](Cc2c[nH]cn2)C(=O)N[C@@H](CC(C)C)C(=O)N2C[C@H](O)C[C@H]2C(=O)N[C@@H](Cc2c[nH]c3ccccc23)C(=O)N[C@@H](CO)C(=O)N[C@@H](Cc2c[nH]c3ccccc23)C(=O)N1C` [Example 1529], the IC50 fell in the range of 1 to 9.9 nM.

For `CCCC[C@H]1C(=O)N2C[C@H](O)C[C@@H]2C(=O)N[C@@H](CC(=O)O)C(=O)N[C@@H](C(C)C)C(=O)N(C)[C@@H](Cc2ccccc2)C(=O)N[C@@H](CCC(N)=O)C(=O)N2C[C@H](O)C[C@@H]2C(=O)N[C@@H](Cc2c[nH]c3ccccc23)C(=O)N[C@@H](Cc2ccc(O)cc2)C(=O)N[C@@H](CC(=O)O)C(=O)N[C@H](C(=O)NCC(N)=O)CSCC(=O)N[C@@H](Cc2cc(F)c(F)c(F)c2)C(=O)N(C)[C@@H](Cc2ccccc2)C(=O)N1C` [Example 9358] ({CH2CO}-[Phe(3,4,5-F3)][NMeF][NMeNle][d(cisHyp)]DV[NMeF]Q[d(cisHyp)]WYDCG-NH2; thioether N-13), the IC50 lay within 10 to 99.9 nM.

Regarding `CCCC[C@H]1C(=O)N2C[C@@H](O)C[C@@H]2C(=O)N[C@@H](CC(=O)O)C(=O)N[C@@H](C(C)C)C(=O)N(C)[C@@H](Cc2ccc(C)cc2)C(=O)N[C@@H](CCCN)C(=O)N2CCC[C@@H]2C(=O)N[C@@H](Cc2c[nH]c3ccccc23)C(=O)N[C@@H](Cc2ccc(O)cc2)C(=O)N[C@@H](CCCN)C(=O)N[C@H](C(=O)NCC(N)=O)CSCC(=O)N[C@@H](Cc2cc(F)c(F)c(F)c2)C(=O)N(C)[C@@H](Cc2ccccc2)C(=O)N1C` [Example 10121] ({CH2CO}-[Phe(3,4,5-F3)][NMeF][NMeNle][dHyp]DV[NMePhe(4-Me)][Orn][dP]WY[Orn]CG-NH2; thioether N-13), the IC50 is 100 to 990 nM.

As to `CCCC[C@H]1C(=O)N2CCC[C@@H]2C(=O)N[C@@H](CC(=O)O)C(=O)N[C@@H](C(C)C)C(=O)N(C)[C@@H](Cc2ccccc2)C(=O)N[C@@H](CC(=O)O)C(=O)N2CCC[C@@H]2C(=O)N[C@@H](Cc2c[nH]c3ccccc23)C(=O)N[C@@H](Cc2ccc(O)cc2)C(=O)N[C@@H](CCO)C(=O)N[C@H](C(=O)NCC(N)=O)CSCC(=O)N[C@@H](Cc2cc(F)c(F)c(F)c2)C(=O)N(C)[C@@H](Cc2ccccc2)C(=O)N1C` [Example 10170] ({CH2CO}-[Phe(3,4,5-F3)][NMeF][NMeNle][dP]DV[NMeF]D[dP]WY[hSer]CG-NH2; thioether N-13), the IC50 fell in the range of 1 to 9.9 nM.

As for `CCCC[C@H]1C(=O)N(C)[C@@H](CCCC)C(=O)N[C@@H](CCC(=O)O)C(=O)N[C@H](C(=O)NCC(N)=O)CSCC(=O)N[C@@H](Cc2ccc(OC)cc2)C(=O)N(C)[C@@H](C)C(=O)N[C@@H](CC(=O)O)C(=O)N2CCC[C@H]2C(=O)N[C@@H](CN)C(=O)N[C@@H](CCC(=O)O)C(=O)N2C[C@H](O)C[C@H]2C(=O)N[C@@H](Cc2c[nH]c3ccccc23)C(=O)N[C@@H](CC(=O)O)C(=O)N[C@@H](Cc2c[nH]c3ccccc23)C(=O)N1C` [Example 7133] ({CH2CO}-Y(Me)[NMeA]DP[Dap]E[Hyp]WDW[NMeNle][NMeNle]ECG-NH2; thioether N-14), the IC50 lay in the range of 10 to 99.9 nM.

Take `CCCC[C@H]1C(=O)N2CCC[C@@H]2C(=O)N[C@@H](CC(=O)O)C(=O)N[C@@H](C(C)C)C(=O)N(C)[C@@H](Cc2ccccc2)C(=O)N[C@@H](CCC(=O)O)C(=O)N2CCCC[C@@H]2C(=O)N[C@H](CCC(=O)O)C(=O)N[C@@H](Cc2ccc(O)cc2)C(=O)N[C@@H](CCCN)C(=O)N[C@H](C(=O)NCC(N)=O)CSCC(=O)N[C@@H](Cc2cc(F)c(F)c(F)c2)C(=O)N(C)[C@@H](Cc2ccc(F)cc2)C(=O)N1C` [Example 10608] ({CH2CO}-[Phe(3,4,5-F3)][NMePhe(4-F)][NMeNle][dP]DV[NMeF]E[dPip][dE]Y[Orn]CG-NH2; thioether N-13): the IC50 lay in the range of 1000 to 10000 nM.

With `CCCC[C@H]1C(=O)N2C[C@H](O)C[C@@H]2C(=O)N[C@@H](CC(=O)O)C(=O)N[C@@H](C(C)C)C(=O)N(C)[C@@H](Cc2ccccc2)C(=O)N[C@@H](CCC(N)=O)C(=O)N2C[C@H](O)C[C@@H]2C(=O)N[C@@H](Cc2c[nH]c3ccccc23)C(=O)N[C@@H](Cc2ccc(O)cc2)C(=O)N[C@@H](CC(N)=O)C(=O)N[C@H](C(=O)NCC(N)=O)CSCC(=O)N[C@@H](Cc2cc(F)c(F)c(F)c2)C(=O)N(C)[C@@H](Cc2ccccc2)C(=O)N1C` [Example 9360] ({CH2CO}-[Phe(3,4,5-F3)][NMeF][NMeNle][d(cisHyp)]DV[NMeF]Q[d(cisHyp)]WYNCG-NH2; thioether N-13), the IC50 fell in the range of 1 to 9.9 nM.

For `CCCC[C@H]1C(=O)N(C)[C@@H](CCCC)C(=O)N[C@@H](CCC(=O)O)C(=O)N[C@H](C(=O)NCC(N)=O)CSCC(=O)N[C@@H](Cc2ccc(OC)cc2)C(=O)N(C)[C@@H](C)C(=O)N[C@@H](CC(N)=O)C(=O)N2CCC[C@H]2C(=O)N[C@@H](Cc2cnc[nH]2)C(=O)N[C@@H](CCCCN)C(=O)N2C[C@H](O)C[C@H]2C(=O)N[C@@H](Cc2c[nH]c3ccccc23)C(=O)N[C@@H](CCN)C(=O)N[C@@H](Cc2c[nH]c3ccccc23)C(=O)N1C` [Example 7118] ({CH2CO}-Y(Me)[NMeA]NPHK[Hyp]W[Dab]W[NMeNle][NMeNle]ECG-NH2; thioether N-14), the IC50 is 1 to 9.9 nM.

In the case of `CCCC[C@H]1C(=O)N(C)[C@@H](CCCC)C(=O)N[C@@H](CCCN)C(=O)N[C@H](C(=O)NCC(N)=O)CSCC(=O)N[C@@H](Cc2ccc(OC)cc2)C(=O)N(C)[C@@H](C)C(=O)N[C@@H](CC(N)=O)C(=O)N2CCC[C@H]2C(=O)N[C@@H](CN)C(=O)N[C@@H](CCC(=O)O)C(=O)N2C[C@H](O)C[C@H]2C(=O)N[C@@H](Cc2c[nH]c3ccccc23)C(=O)N[C@@H](CC(=O)O)C(=O)N[C@@H](Cc2c[nH]c3ccccc23)C(=O)N1C` [Example 7100] ({CH2CO}-Y(Me)[NMeA]NP[Dap]E[Hyp]WDW[NMeNle][NMeNle][Orn]CG-NH2; thioether N-14), the IC50 lay within 1 to 9.9 nM.

Consider `CCCC[C@H]1C(=O)N2C[C@@H](O)C[C@@H]2C(=O)N[C@@H](CC(=O)O)C(=O)N[C@@H](C(C)C)C(=O)N(C)[C@@H](Cc2ccc(F)cc2)C(=O)N[C@@H](CCC(=O)O)C(=O)N2CCC[C@@H]2C(=O)N[C@@H](Cc2c[nH]c3ccccc23)C(=O)N[C@@H](Cc2ccc(O)cc2)C(=O)N[C@@H](CC(C)C)C(=O)N[C@H](C(=O)NCC(N)=O)CSCC(=O)N[C@@H](Cc2cc(F)c(F)c(F)c2)C(=O)N(C)[C@@H](Cc2ccccc2)C(=O)N1C` [Example 10116] ({CH2CO}-[Phe(3,4,5-F3)][NMeF][NMeNle][dHyp]DV[NMePhe(4-F)]E[dP]WYLCG-NH2; thioether N-13), for which the IC50 is 1 to 9.9 nM.

As to `CCCC[C@H]1C(=O)N(C)[C@@H](CCCC)C(=O)N[C@@H](CCC(=O)O)C(=O)N[C@H](C(=O)NCC(N)=O)CSCC(=O)N[C@@H](Cc2ccc(OC)cc2)C(=O)N(C)[C@@H](C)C(=O)N[C@@H](CC(=O)O)C(=O)N2CCC[C@H]2C(=O)N[C@@H](CN)C(=O)N[C@@H](CCC(=O)O)C(=O)N2C[C@H](O)C[C@H]2C(=O)N[C@@H](Cc2c[nH]c3ccccc23)C(=O)N[C@@H](CCN)C(=O)N[C@@H](Cc2c[nH]c3ccccc23)C(=O)N1C` [Example 7113] ({CH2CO}-Y(Me)[NMeA]DP[Dap]E[Hyp]W[Dab]W[NMeNle][NMeNle]ECG-NH2; thioether N-14), the IC50 was in the range of 1 to 9.9 nM.

With `CCCC[C@H]1C(=O)N(C)[C@@H](CCCC)C(=O)N[C@@H](CCC(=O)O)C(=O)NC(C(=O)NCC(N)=O)CSCC(=O)N[C@@H](Cc2ccc(O)cc2)C(=O)N(C)[C@@H](C)C(=O)N[C@@H](CC(N)=O)C(=O)N2CCC[C@H]2C(=O)N[C@@H](CC(N)=O)C(=O)N[C@@H](CC(C)C)C(=O)N2CCC[C@H]2C(=O)N[C@@H](Cc2c[nH]c3ccccc23)C(=O)N[C@@H](CC(=O)O)C(=O)N[C@@H](Cc2c[nH]c3ccccc23)C(=O)N1C` (stereo partly drawn) [Example 9172] ({CH2CO}-Y[NMeA]NPNLPWDW[NMeNle][NMeNle]E[ξC]G-NH2; thioether N-14), the IC50 is 100 to 990 nM.

Staying with this test, now noted: PD-L1-His 10 nM, PD-1-Ig 20 nM; read-out: HTRF Human PD-L1/PD-1 Binding Assay IC50.
With `CCCC[C@H]1C(=O)N(C)[C@@H](CCCC)C(=O)N[C@@H](CC(C)C)C(=O)N[C@H](C(=O)NCC(N)=O)CSCC(=O)N[C@@H](Cc2ccc(O)cc2)C(=O)N(C)[C@@H](C)C(=O)N[C@@H](CC(N)=O)C(=O)N2CCC[C@H]2C(=O)N(C)CC(=O)N[C@@H](CCC(N)=O)C(=O)N2C[C@H](O)C[C@H]2C(=O)N[C@@H](Cc2c[nH]c3ccccc23)C(=O)N[C@@H](CO)C(=O)N[C@@H](Cc2c[nH]c3ccccc23)C(=O)N1C` [Example 5262] ({CH2CO}-Y[NMeA]NP[Sar]Q[Hyp]WSW[NMeNle][NMeNle]LCG-NH2; thioether N-14), the IC50 turned out to be 101 nM.
